The values below come from ChEMBL document CHEMBL1141580, “Studies on the chemical constituents and anticancer activity of Saxifraga stolonifera (L) Meeb” (2008).

Assay [1] has as its system BGC-823. The assay is described as follows: Growth inhibition of human BGC823 cells at 50 uM after 72 hrs by MTT assay relative to control. The following applies: BGC-823, 72 h, read-out: GI. It counts as functional.
In assay [2] the test system is BGC-823. The assay is described as follows: Growth inhibition of human BGC823 cells at 10 uM after 72 hrs by MTT assay relative to control. It counts as functional. The following applies: BGC-823, 72 h, read-out: GI.
The subject of assay [3] is BGC-823. The experiment in a line: Growth inhibition of human BGC823 cells at 100 uM after 72 hrs by MTT assay relative to control. It counts as functional. The following applies: BGC-823, 72 h, read-out: GI.
Assay [4] deals with BGC-823. The assay is described as follows: Growth inhibition of human BGC823 cells at 5 uM after 72 hrs by MTT assay relative to control. It counts as functional. The following applies: BGC-823, 72 h, read-out: GI.
Assay [5] relates to BGC-823. The assay is described as follows: Induction of apoptosis in human BGC823 cells at 20 uM after 12 hrs by flow cytometry. It counts as functional.
For assay [6], the system named is BGC-823. The assay is described as follows: Induction of apoptosis in human BGC823 cells at 20 uM after 24 hrs by flow cytometry. The format is functional.
For assay [7], the system named is BGC-823. The assay is described as follows: Induction of apoptosis in human BGC823 cells at 20 uM after 36 hrs by flow cytometry. It counts as functional.
In assay [8] the test system is BGC-823. The experiment in a line: Induction of apoptosis in human BGC823 cells at 20 uM after 48 hrs by flow cytometry. The format is functional.
In assay [9] the test system is BGC-823. The experiment in a line: Induction of apoptosis in human BGC823 cells at 100 uM after 48 hrs by flow cytometry. The format is functional.
Assay [10] concerns BGC-823. The experiment in a line: Induction of apoptosis in human BGC823 cells at 100 uM after 12 hrs by flow cytometry. The format is functional.
For assay [11], the system named is BGC-823. The assay is described as follows: Induction of apoptosis in human BGC823 cells at 100 uM after 36 hrs by flow cytometry. The format is functional.
In assay [12] the test system is BGC-823. The experiment in a line: Effect on cell morphology in human BGC823 cells assessed as chromosomal condensations at 50 uM. It counts as functional, cell-based.
Assay [13] concerns BGC-823. The experiment in a line: Induction of apoptosis in human BGC823 cells at 100 uM after 24 hrs by flow cytometry. It counts as functional.
In assay [14] the test system is BGC-823. The assay is described as follows: Induction of apoptosis in human BGC823 cells assessed as increase in DNA fragmentation at 100 uM after 48 hrs. It counts as functional, cell-based.
Assay [15] concerns BGC-823. The experiment in a line: Induction of apoptotic bodies in human BGC823 cells at 50 uM after 48 hrs. The format is functional, cell-based.
The subject of assay [16] is BGC-823. The experiment in a line: Induction of apoptosis in human BGC823 cells assessed as increase in DNA fragmentation at 50 uM after 48 hrs. The format is functional, cell-based.

Calls of active or inactive are those of the source. No cut-off for these calls is given here.

For `O=c1c(O[C@@H]2O[C@H](CO)C(O)[C@H](O)[C@H]2O)c(-c2ccc(O)c(O)c2)oc2cc(O)cc(O)c12` (single isomer, unassigned) [ISOQUERCETIN], the inhibition of growth at 50 µM in the assay with BGC-823 [1] was 9.2%. Besides, the inhibition of growth at 10 µM in the assay with BGC-823 [2] was determined as 8.4%. Further, the inhibition of growth at 100 µM in the assay with BGC-823 [3] was 12.1%. Besides, the inhibition of growth at 5 µM in the assay with BGC-823 [4] is 1.5%.

For the molecule `C[C@@H]1O[C@@H](Oc2c(-c3ccc(O)c(O)c3)oc3cc(O)cc(O)c3c2=O)C(O)[C@H](O)C1O` (single isomer, unassigned) [QUERCITRIN], the inhibition of growth at 50 µM in the assay on BGC-823 [1] amounted to 5.2%. The inhibition of growth at 10 µM in the assay with BGC-823 [2] was 3.8%. The inhibition of growth at 100 µM with BGC-823 [3] is 10.6%. The inhibition of growth at 5 µM in the assay on BGC-823 [4] is 0.2%.

Regarding `COc1c(O)cc2c(c1O)[C@@H]1O[C@H](CO)[C@@H](O)[C@H](O)[C@H]1OC2=O` [BERGENIN], the inhibition of growth at 50 µM in the assay with BGC-823 [1] was determined as 6.1%. In addition, the inhibition of growth at 10 µM in the assay on BGC-823 [2] was 2.2%. The inhibition of growth at 100 µM in the assay on BGC-823 [3] turned out to be 10.8%. For the same molecule, the inhibition of growth at 5 µM in the assay with BGC-823 [4] was -0.8%.

Take `CC[C@H](CC[C@@H](C)[C@H]1CC[C@H]2[C@@H]3CC=C4C[C@@H](O)CC[C@]4(C)[C@H]3CC[C@]12C)C(C)C` [BETA-SITOSTEROL]: the inhibition of growth at 50 µM in the assay with BGC-823 [1] came out at 15.6%. Moreover, the inhibition of growth at 10 µM with BGC-823 [2] was determined as 8.8%. In addition, the inhibition of growth at 100 µM with BGC-823 [3] was 20.4%. For the same molecule, the inhibition of growth at 5 µM with BGC-823 [4] turned out to be 0.4%.

`O=C(O)c1cc(O)c(O)c(O)c1` [GALLIC ACID]: the inhibition of growth at 50 µM in the assay on BGC-823 [1] is 16.7%. In addition, the inhibition of growth at 10 µM in the assay with BGC-823 [2] is 10.2%. The inhibition of growth at 100 µM in the assay on BGC-823 [3] amounted to 22.5%. Also, in the assay with BGC-823 [4], the inhibition of growth at 5 µM amounted to 6.7%.

For `CCCCCCCCCCCCCCCCCCCCCCCCCCCCCCC` [HENTRIACONTANE], the inhibition of growth at 50 µM with BGC-823 [1] turned out to be 7%. The inhibition of growth at 10 µM with BGC-823 [2] stood at 3.9%. Moreover, in the assay on BGC-823 [3], the inhibition of growth at 100 µM came to 10.1%. Moreover, in the assay with BGC-823 [4], the inhibition of growth at 5 µM is 4.5%.

`CC[C@@]1(O)C(=O)OCc2c1cc1n(c2=O)Cc2cc3cc(O)ccc3nc2-1` [HYDROXYCAMPTOTHECIN]: the Activity in the assay with BGC-823 [5] amounted to 3.72%; in the assay on BGC-823 [6], 4.78%; in the assay with BGC-823 [7], 13.2%; in the assay on BGC-823 [8], 6.47%.

Consider `CCCCCCCCCCCCCCCCCCCCCCCCCCCCC` [NONACOSANE], for which the inhibition of growth at 50 µM with BGC-823 [1] is -5.6%. Moreover, the inhibition of growth at 10 µM in the assay on BGC-823 [2] is -5.2%. Also, in the assay with BGC-823 [3], the inhibition of growth at 100 µM is -6.6%. Moreover, the inhibition of growth at 5 µM in the assay with BGC-823 [4] was -0.9%.

On to `O=c1c(O)c(-c2ccc(O)c(O)c2)oc2cc(O)cc(O)c12` [QUERCETIN], for which the Activity in the assay on BGC-823 [9] worked out at 10.23%; in the assay with BGC-823 [10] it was 5.02%; with BGC-823 [11], 10.19%; in the assay on BGC-823 [13] it was 11.82%. Besides, the inhibition of growth at 50 µM in the assay with BGC-823 [1] was 22.4%. The inhibition of growth at 10 µM in the assay on BGC-823 [2] was found to be 11%. Also, the result with BGC-823 [12], in the assay with BGC-823 [14], in the assay on BGC-823 [15] and with BGC-823 [16] was Active. The inhibition of growth at 100 µM with BGC-823 [3] came to 39.3%. For the same molecule, the inhibition of growth at 5 µM in the assay on BGC-823 [4] is 7.5%.
